Like-named read-outs stand apart in the source and are kept apart here.
Assays:
Type in all cases: physicochemical
[1] = Solubility of Form I and Form II in different solvents (excess shaken 24 hours at 20° C., filtration, UV spectrometry); conditions: for solubility thermodynamic at 24 h: thermodynamic from solid, read-out: Solubility in g/100 mL of solution
Method: An excess of product (Form I or Form II, where appropriate) was shaken with the relevant solvent during 24 hours at 20° C. After filtration, the concentration of the product in solution was determined with UV spectrometry.

[2] = Stability of the polymorphic forms; conditions: compared among the polymorphic forms
[3] = Intrinsic dissolution; conditions: compared with Form I
[4] = Hygroscopicity of the polymorphic forms; conditions: compared among the polymorphic forms
[5] = 1-methoxy-2-propanol, 24 hours at 20° C.
[6] = 2-propanol/dichloromethane (97/3) (v/v), 24 hours at 20° C.
[7] = 2-propanone, 24 hours at 20° C.
[8] = 4-methyl-2-pentanone, 24 hours at 20° C.
[9] = acetonitrile, 24 hours at 20° C.
[10] = ethanol/water (95/5) (v/v), 24 hours at 20° C.

Compound | Solubility in g/100 mL of solution [1, 5] [g/100 mL] | Solubility in g/100 mL of solution ([1]; 2-butanone, 24 hours at 20° C.) [g/100 mL] | Solubility in g/100 mL of solution [1, 6] [g/100 mL] | Solubility in g/100 mL of solution ([1]; 2-propanol, 24 hours at 20° C.) [g/100 mL] | Solubility in g/100 mL of solution [1, 7] [g/100 mL] | Solubility in g/100 mL of solution [1, 8] [g/100 mL] | Solubility in g/100 mL of solution [1, 9] [g/100 mL] | Solubility in g/100 mL of solution [1, 10] [g/100 mL] | Solubility in g/100 mL of solution ([1]; ethanol, 24 hours at 20° C.) [g/100 mL] | Solubility in g/100 mL of solution ([1]; methanol, 24 hours at 20° C.) [g/100 mL] | Solubility in g/100 mL of solution ([1]; toluene, 24 hours at 20° C.) [g/100 mL] | Stability of the polymorph form [2] | other results
COc1ccc2c(O[C@@H]3C[C@H]4C(=O)N[C@]5(C(=O)NS(=O)(=O)C6CC6)C[C@H]5/C=C\CCCCN(C)C(=O)[C@@H]4C3)cc(-c3nc(C(C)C)cs3)nc2c1C [Form II] | 1.6 | 2.5 | 0.19 | 0.11 | 1.2 | 0.81 | 0.20 | 0.27 | 0.17 | 0.29 | 0.43 | less stable but nevertheless sufficiently stable | Solubility in g/100 mL of solution ([1]; 1-butanol, 24 hours at 20° C.): 0.31 g/100 mL; Intrinsic dissolution [3]: greater than that of Form I
COc1ccc2c(O[C@@H]3C[C@H]4C(=O)N[C@]5(C(=O)NS(=O)(=O)C6CC6)C[C@H]5/C=C\CCCCN(C)C(=O)[C@@H]4C3)cc(-c3nc(C(C)C)cs3)nc2c1C [Form I] | 0.82 | 0.87 | 0.045 | 0.027 | 0.66 | 0.28 | 0.075 | 0.078 | 0.050 | 0.056 | 0.086 | most stable form | Solubility in g/100 mL of solution ([1]; N,N-dimethylacetamide*, 125 mg of Form I was dissolved in 0.5 mL of N,N-dimethylacetamide): >20 g/100 mL; Solubility in g/100 mL of solution ([1]; N,N-dimethylacetamide, 24 hours at 20° C.): 16 g/100 mL; Solubility in g/100 mL of solution ([1]; acetic acid, 24 hours at 20° C.): 1.7 g/100 mL; solubility thermodynamic at 24 h ([1]; aqueous with cosolvent or surfactant or cyclodextrin, acetic acid/water (10/90) (v/v) (pH = 2.2), 24 hours at 20° C.): < 10 µg/mL; Solubility in g/100 mL of solution ([1]; dichloromethane, 24 hours at 20° C.): 8.5 g/100 mL; Solubility in g/100 mL of solution ([1]; ethyl acetate, 24 hours at 20° C.): 0.21 g/100 mL; Solubility in g/100 mL of solution ([1]; methanol/dichloromethane (50/50) (v/v), 24 hours at 20° C.): 8.3 g/100 mL; Solubility in g/100 mL of solution ([1]; tetrahydrofuran, 24 hours at 20° C.): 7.0 g/100 mL; solubility thermodynamic at 24 h ([1]; water (pH = 5.0), 24 hours at 20° C.): < 10 µg/mL; Hygroscopicity [4]: least hygroscopic form

Source: patent publication US8143402B2, “Polymorphic forms of a macrocyclic inhibitor of HCV” (Tibotec Pharmaceuticals Ltd., priority 2007, dated 2012)
